The numbers were not newly measured in patent US20150336981A1, “MODIFIED POLYPHENOLS AND MODIFIED POLYPHENOL COMPOSITIONS” (CELLAROUGE PTY LTD, priority 2012, published 2015), which cites them from elsewhere.

Each structure is given as a SMILES string.

For this data set, the system named is high-carbohydrate, high fat diet-fed rats. The settings on record: HEA: high-carbohydrate, high fat diet + ellagic acid 0.8 g/kg food.

Take `O=c1oc2c(O)c(O)cc3c(=O)oc4c(O)c(O)cc1c4c23` [ellagic acid]: the AUC is 696 ± 11 mmol·min/L, the Abdominal circumference is on record as 21.3 ± 0.3 cm, the Abdominal fat pads is reported as 520 ± 29 mg/mm tibial length and the BMI is listed as 0.72 ± 0.02 g/cm^2. The Basal blood glucose is on record as 3.9 ± 0.2 mmol/L, the Feed efficiency is 0.31 ± 0.02 g/kJ, the Final body weight is recorded as 473 ± 2 g and the Food intake is on record as 21.0 ± 0.4 g. In addition, the “Plasma C-reactive protein” value is 2.40 ± 0.07 µmol/L, the “Plasma non-esterified fatty acids” value is recorded as 1.7 ± 0.2 mmol/L, the Plasma total cholesterol is recorded as 1.5 ± 0.1 mmol/L and the Plasma triglycerides is given as 0.5 ± 0.1 mmol/L. The Plasma urea is on record as 6.2 ± 0.4 mmol/L, the Plasma uric acid is 44.3 ± 3.8 µmol/L and the Water intake is on record as 19.0 ± 0.4 mL.
